Data on 7 compounds can be found in patent US8470847B2, “Derivatives of 7-alkynyl-1,8-naphthyridones, preparation method thereof and use of same in therapeutics” (Sanofi, priority 2007, dated 2013).

A word on the IC50: it is the midpoint of a concentration-inhibition curve. A low value points to greater potency. A word on the melting point: it is the temperature of the solid-liquid transition.

The target of the first data set is VEGFR-3 (Homo sapiens (Human), UniProt P35916). The data set can be described thus: Measurement of the tyrosine kinase activity of VEGFR-3 by ELISA. Type of data set: biochemical. The note with it: VEGFR-3-TK, poly Glu-Tyr substrate, 30 μM ATP. For orientation: ELISA stands for enzyme-linked immunosorbent assay.
Chain of VEGFR-3 (P35916 845-1173): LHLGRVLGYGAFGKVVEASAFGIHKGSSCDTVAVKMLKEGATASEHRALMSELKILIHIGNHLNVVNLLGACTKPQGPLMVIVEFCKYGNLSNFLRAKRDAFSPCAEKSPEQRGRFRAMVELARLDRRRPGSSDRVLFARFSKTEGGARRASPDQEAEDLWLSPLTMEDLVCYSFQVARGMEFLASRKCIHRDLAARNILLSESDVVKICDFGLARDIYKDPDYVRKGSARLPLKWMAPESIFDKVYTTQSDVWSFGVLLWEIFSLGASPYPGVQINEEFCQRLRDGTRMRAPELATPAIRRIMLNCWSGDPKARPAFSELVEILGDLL
Procedure: Measurement of the Tyrosine Kinase Activity of VEGFR-3 by ELISA
The enzymatic activity of VEGFR-3 is evaluated on an ELISA assay by measuring the intensity of phosphorylation of the substrate poly Glu-Tyr. […] The plate is then covered with an adhesive film and incubated overnight at 37° C. The following day, the wells are emptied by turning the plate over, washed by adding 300 μl of buffer solution (PBS+0.05% Tween 20) and dried by further incubation of the plate for 2 h at 37° C. A 90 μl reaction mixture is deposited onto each well. […] The plates are then incubated with gentle agitation at ambient temperature for 30 min. After 3 rinses with the buffer solution (300 μl/well per wash), 100 μl of anti-phosphotyrosine-HRP antibody ( 1/30 000) are added to each well and the plates are again incubated for 30 min at ambient temperature with gentle agitation. […] The total activity is evaluated by the difference in optical density obtained on samples incubated in the presence (stimulated) and in the absence (non-stimulated) of VEGFR-3.
For `CCn1c(N)c(C(=O)NC)c(=O)c2ccc(C#CC(C)(O)COC)nc21` (single isomer, unassigned; (-)) [Compound 72, (−)-2-amino-1-ethyl-7-(3-hydroxy-4-methoxy-3-methylbut-1-yn-1-yl)-N-methyl-4-oxo-1,4-dihydro-1,8-naphthyridine-3-carboxamide], the IC50 turned out to be 23 nM.

Test system in the next data set: not given
Experiment: not given
Details: not given
`CNC(=O)c1c(N)n(Cc2ccccn2)c2nc(C#CC(C)(O)COC)ccc2c1=O` (racemic) yielded a melting point of 169 °C.

On to `CCn1c(N)c(C(=O)NC)c(=O)c2ccc(C#CC3(O)CCOC3)nc21` (racemic) [Compound 7, (±)-2-Amino-1-ethyl-7-[(3-hydroxytetrahydrofuran-3-yl)ethynyl]-N-methyl-4-oxo-1,4-dihydro-1,8-naphthyridine-3-carboxamide], for which the melting point was found to be 253 °C.

In turn, `CCn1c(N)c(C(=O)NC)c(=O)c2ccc(C#CC(O)C3CCCC3)nc21` (racemic) [Compound 10, (±)-2-Amino-7-(3-cyclopentyl-3-hydroxyprop-1-yn-1-yl)-1-ethyl-N-methyl-4-oxo-1,4-dihydro-1,8-naphthyridine-3-carboxamide] registered a melting point of 253 °C.

`CCn1c(N)c(C(=O)NC)c(=O)c2ccc(C#CC(C)(O)c3cnccn3)nc21` (racemic) [Compound 48, (±)-2-Amino-1-ethyl-7-(3-hydroxy-3-pyrazin-2-ylbut-1-yn-1-yl)-N-methyl-4-oxo-1,4-dihydro-1,8-naphthyridine-3-carboxamide] came in with a melting point of 271 °C.

In turn, `CCn1c(N)c(C(=O)NC)c(=O)c2ccc(C#CC(O)(COC)C3CC3)nc21` (racemic) [Compound 50, (±)-2-Amino-7-(3-cyclopropyl-3-hydroxy-4-methoxybut-1-yn-1-yl)-1-ethyl-N-methyl-4-oxo-1,4-dihydro-1,8-naphthyridine-3-carboxamide] returned a melting point of 208 °C.

Compound `CNC(=O)c1c(N)n(C2CCCC2)c2nc(C#CC(C)(O)CO)ccc2c1=O` (racemic) [Compound 53, (±)-2-Amino-1-cyclopentyl-7-(3,4-dihydroxy-3-methylbut-1-yn-1-yl)-N-methyl-4-oxo-1,4-dihydro-1,8-naphthyridine-3-carboxamide] displayed a melting point of 210.5 °C.
